This is an account of results in the supplement of paper PMC11208160.

A short description of the data set: recombinant barcode read abundance after kanamycin selection (control-corrected) (log10(CPM+1)); higher = more efficient recombination; sequences stand for … in AGTGCAGAGAAAATCGGCCAGTTTTCTCTGCCTGCAGTCCGCATGCCGT…AGATTTATGCAGCGGACTGCCTTTCTCCCAAAGTGATAAACCGGACAGTATCATGGACCGGTTTTCCCGGTAATCCGTATTTGCAAGGTTGGTTTCACT; site = the 11-nt target. The method, boiled down: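 The screen was pooled in E. coli and paired targets with IS621 bridge RNA target-binding loops. Recombination efficiency is taken from barcode counts per million at recombinant junctions, averaged and adjusted against the control. Values, in the form log10(CPM+1), come from duplicate plating on chloramphenicol/ampicillin LB agar or on chloramphenicol/ampicillin/kanamycin with 0.1 mM IPTG.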
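Note: IS621 recombinase and bridge RNA in Escherichia coli cells.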

Regarding “GAGCGCTCTTGGGTTCTAACCTGTTGCTC (site GAGCGCTCTGA)”, the “recombinant barcode read abundance (log10)” value was 1.18.
Take “GAGCGCTCTTGGGTTCTAACCTGTTGCTC (site GAGCGCTCTTA)”: the “recombinant barcode read abundance (log10)” value was 0.381.
As for “GAGCGTACTTGGGTTCTAACCTGTTGCAT (site GAGAGTACTAT)”, the “recombinant barcode read abundance (log10)” value was 0.257.
Then “GAGCGTACTTGGGTTCTAACCTGTTGCAT (site GAGCGTACTAT)”, with 1.09; and “GAGCGTACTTGGGTTCTAACCTGTTGCAT (site GAGGGTACTAT)”, with 0.0723; and “GAGCGTACTTGGGTTCTAACCTGTTGCAT (site GAGTGTACTAT)”, with 0.0144.
“GAGCGTCCTTGGGTTCTAACCTGTTGCTA (site AGCGAATCTCG)”: the “recombinant barcode read abundance (log10)” value turned out to be 0.0924.
With “GAGCGTCCTTGGGTTCTAACCTGTTGCTA (site GAGCGTCCTTA)”, the “recombinant barcode read abundance (log10)” value came out at 0.94.
Then “GAGCTACCTTGGGTTCTAACCTGTTGCCT (site GAGCTACCTAG)”, with 1.46; and “GAGCTACCTTGGGTTCTAACCTGTTGCCT (site GAGCTACCTCG)”, with 0.549; and “GAGCTACCTTGGGTTCTAACCTGTTGCCT (site GAGCTACCTGG)”, with 0.172.
Then “GAGCTACCTTGGGTTCTAACCTGTTGCCT (site GAGCTACCTTG)”, with 0.0234.
The value for “GAGCTGCCTTGGGTTCTAACCTGTTGCTT (site AAGCTGCCTAG)” was 0.25; that for “GAGCTGCCTTGGGTTCTAACCTGTTGCTT (site GAGCTGCCTAA)” was 1.3.
Turning to “GAGGAGCCTTGGGTTCTAACCTGTTGCGT (site GAGGAGCCTAC)”, the “recombinant barcode read abundance (log10)” value stood at 2.62.
“GAGGAGCCTTGGGTTCTAACCTGTTGCGT (site TAGGAACCTAC)”: the “recombinant barcode read abundance (log10)” value was determined as 1.34.
As for “GAGGCGGCTTGGGTTCTAACCTGTTGCTT (site GAGACGGCTAA)”, the “recombinant barcode read abundance (log10)” value turned out to be 0.162.
As to “GAGGCGGCTTGGGTTCTAACCTGTTGCTT (site GAGCCGGCTAA)”, the “recombinant barcode read abundance (log10)” value turned out to be 0.149.
Then “GAGGCGGCTTGGGTTCTAACCTGTTGCTT (site GAGGCGGCTAA)”, with 1.04.
Turning to “GAGGCGGCTTGGGTTCTAACCTGTTGCTT (site GAGTCGGCTAA)”, the “recombinant barcode read abundance (log10)” value came to 0.0862.
Then “GAGGCTCCTTGGGTTCTAACCTGTTGCCA (site GAGGCTCCTAG)”, with 2.19; and “GAGGCTCCTTGGGTTCTAACCTGTTGCCA (site GAGGCTCCTCG)”, with 0.0289.
The value for “GAGGCTCCTTGGGTTCTAACCTGTTGCCA (site GAGGCTCCTGG)” was 0.164.
Take “GAGGCTCCTTGGGTTCTAACCTGTTGCCA (site GAGGCTCCTTG)”: the “recombinant barcode read abundance (log10)” value was found to be 0.365.
Take “GAGGCTCCTTGGGTTCTAACCTGTTGCCT (site GAGGCTCCTAG)”: the “recombinant barcode read abundance (log10)” value was determined as 0.744.
Then “GAGGCTCCTTGGGTTCTAACCTGTTGCCT (site GAGGCTCCTCG)”, with 0.0603; and “GAGGCTCCTTGGGTTCTAACCTGTTGCCT (site GAGGCTCCTGG)”, with 0.137.
Then “GAGGCTCCTTGGGTTCTAACCTGTTGCCT (site GAGGCTCCTTG)”, with 0.201; and “GAGGGCCCTTGGGTTCTAACCTGTTGCCG (site GAGGGCCCTCA)”, with 0.29; and “GAGGGCCCTTGGGTTCTAACCTGTTGCCG (site GAGGGCCCTCC)”, with 1.2.
Then “GAGGGCCCTTGGGTTCTAACCTGTTGCCG (site GAGGGCCCTCG)”, with 1.96; and “GAGGGCCCTTGGGTTCTAACCTGTTGCCG (site GAGGGCCCTCT)”, with 0.759.
As for “GAGGGCCCTTGGGTTCTAACCTGTTGCGG (site GAGGGCCCTCA)”, the “recombinant barcode read abundance (log10)” value turned out to be 1.94.
Then “GAGGGCCCTTGGGTTCTAACCTGTTGCGG (site GAGGGCCCTCC)”, with 3.11.
Regarding “GAGGGCCCTTGGGTTCTAACCTGTTGCGG (site GAGGGCCCTCG)”, the “recombinant barcode read abundance (log10)” value came to 0.81.
In the case of “GAGGGCCCTTGGGTTCTAACCTGTTGCGG (site GAGGGCCCTCT)”, the “recombinant barcode read abundance (log10)” value turned out to be 2.8.
As for “GAGGGTACTTGGGTTCTAACCTGTTGCAT (site GAGAGTACTAT)”, the “recombinant barcode read abundance (log10)” value was determined as 1.16.
Then “GAGGGTACTTGGGTTCTAACCTGTTGCAT (site GAGCGTACTAT)”, with 0.206; and “GAGGGTACTTGGGTTCTAACCTGTTGCAT (site GAGGGTACTAT)”, with 2.69.
Regarding “GAGGGTACTTGGGTTCTAACCTGTTGCAT (site GAGTGTACTAT)”, the “recombinant barcode read abundance (log10)” value came out at 0.102.
The value for “GAGGGTCCTTGGGTTCTAACCTGTTGCGT (site GAGGGTCCTAA)” was 0.194; that for “GAGGGTCCTTGGGTTCTAACCTGTTGCGT (site GAGGGTCCTAC)” was 2.82.
“GAGGGTCCTTGGGTTCTAACCTGTTGCGT (site GAGGGTCCTAG)”: the “recombinant barcode read abundance (log10)” value came out at 1.86.
Take “GAGGGTCCTTGGGTTCTAACCTGTTGCGT (site GAGGGTCCTAT)”: the “recombinant barcode read abundance (log10)” value came to 2.29.
Then “GAGTACCCTTGGGTTCTAACCTGTTGCGT (site GAGAATCCTAC)”, with 0.107; and “GAGTACCCTTGGGTTCTAACCTGTTGCGT (site GAGTACCCTAC)”, with 3.2.
Then “GAGTAGCCTTGGGTTCTAACCTGTTGCGG (site GAGTAGCCTCC)”, with 2.59; and “GAGTAGCCTTGGGTTCTAACCTGTTGCGG (site GAGTCGCCTCC)”, with 0.196.
“GAGTAGCCTTGGGTTCTAACCTGTTGCGG (site GAGTGGCCTCC)”: the “recombinant barcode read abundance (log10)” value is 0.3.
Then “GAGTAGCCTTGGGTTCTAACCTGTTGCGG (site GAGTTGCCTCC)”, with 0.204; and “GAGTGTACTTGGGTTCTAACCTGTTGCAT (site GAGAGTACTAT)”, with 0.208; and “GAGTGTACTTGGGTTCTAACCTGTTGCAT (site GAGCGTACTAT)”, with 0.553.
Then “GAGTGTACTTGGGTTCTAACCTGTTGCAT (site GAGGGTACTAT)”, with 0.029; and “GAGTGTACTTGGGTTCTAACCTGTTGCAT (site GAGTGTACTAT)”, with 1.32.
For “GAGTGTTCTTGGGTTCTAACCTGTTGCTT (site GAGTGTTCTAA)”, the “recombinant barcode read abundance (log10)” value is 0.277.
Consider “GAGTGTTCTTGGGTTCTAACCTGTTGCTT (site TGTACGACTCC)”, for which the “recombinant barcode read abundance (log10)” value is 0.0677.
The value for “GATAACTCTTGGGTTCTAACCTGTTGCCT (site AATAACTCTAG)” was 0.802; that for “GATAACTCTTGGGTTCTAACCTGTTGCCT (site CATAACTCTAG)” was 0.329.
The value for “GATAACTCTTGGGTTCTAACCTGTTGCCT (site GATAACTCTAG)” was 0.734.
